Experiment [1] concerns the target T1, Zika NS2B-NS3pro (unlinked complex) (Zika virus, UniProt A0A024B7W1).
T1 construct: DNA fragments encoding the isolated NS3 (14–185) and NS2B (48–100) with the transmembrane regions removed; His-tag (cleaved yes); made in house; host or cells: Escherichia coli BL21 (DE3) Star
The experiment in a line: Inhibition of unlinked Zika NS2B-NS3pro, fluorogenic substrate Bz-nKRR-AMC. Format: biochemical. Conditions: for IC50 / Inhibition at 500 μM: Bz-nKRR-AMC 250 μM; for Inhibition at 500 μM: initial screening, compound 500 μM, protease 50 nM; for inhibitory activity (in words): compound concentration up to 500 μM. The protocol:
Due to the urgency to fight ZIKV infection, we attempted to screen the inhibitors of Zika NS2B-NS3pro from natural products rich in edible plants. To better reflect the situation in vivo, here we selected the unlinked Zika NS2B-NS3pro complex for screening. However as most natural products are largely insoluble in aqueous buffers, we have assessed effects of DMSO and glycerol on the conformations (Fig 1E and 1F) as well as on catalytic parameters (Table 1). Consequently, 50 mM Tris buffer at pH 8.5 + 20% Glycerol was utilized as the screening buffer as it could dissolve all natural products in the present study but has no significant effect on the conformation of Zika NS2B-NS3pro (Fig 1F).
To allow comparison with the NS2B-NS3pro complexes of four Dengue serotypes (17), we selected three fluorophore-tagged substrates previously used (17): namely Bz-Nle-Lys-Arg-Arg-AMC, Boc-Gly-Arg-Arg-AMC and Boc-Gly-Lys-Arg-AMC (Bachem AG, Bubendorf), which were dissolved in dimethyl sulfoxide for preparing stock solutions (100 mM). All enzymatic experiments were performed in triplicate and data are presented as mean ± SD, while IC50, Km and Ki were obtained by fitting with GraphPad Prism 7.0 [61].
All natural products were purchased from Sigma-Aldrich, which are all HPLC purified. After optimization of buffer conditions, here, we selected 50 mM Tris-HCl buffer at pH 8.5 in the presence of 20% glycerol which could dissolve all natural products. Briefly, for the initial screening, the Zika protease at 50 nM was preincubated for 30 min with different compounds at final concentrations of 5 and 500 μM dissolved in 1 μl DMSO, followed by adding Bz-nKRR-AMC to 250 μM to initiate reaction. Only the compounds showing significant inhibitions at both concentrations were subjected to further determination of IC50 and Ki.
For Ki determination, the assay was performed with different final concentrations of the inhibitors and substrate. Briefly, the Zika protease at 50 nM was preincubated with the inhibitor at different concentrations for 30 min at 37°C. Subsequently, the reaction was initiated by addition of the corresponding concentration series of the substrate. All measurements were performed in triplicate and data are presented as mean ± SD. The Ki was obtained by fitting in the non-competitive inhibition mode with GraphPad Prism 7.0, with an equation: Vmaxinh = Vmax/(1+I/Ki), while I is the concentration of inhibitor [61].

For experiment [2], the target named is Dengue-2 NS2B-NS3pro. Also noted: method as in PMID 25564380. Particulars: allosteric inhibition, previously characterized; cited from earlier work.
The target in experiment [3] is linked Zika NS2B-NS3pro. Particulars: linked enzyme, assay buffer pH 7; cited from earlier work.
Where [4] appears, read: IC50, protease 50 nM preincubated 30 min at 37°C, 50 mM Tris-HCl pH 8.5 + 20% glycerol, mean ± SD, triplicate.
Setting [5] is: Ki, non-competitive fit, protease 50 nM preincubated 30 min at 37°C, 50 mM Tris-HCl pH 8.5 + 20% glycerol, mean ± SD, triplicate.
Where [6] appears, read: 50 mM Tris-HCl pH 8.5 + 20% glycerol.
The mark [7] stands for this setting: protease 50 nM preincubated 30 min at 37°C, 50 mM Tris-HCl pH 8.5 + 20% glycerol, mean ± SD, triplicate, read-out: IC50.
The mark [8] stands for this setting: non-competitive fit, protease 50 nM preincubated 30 min at 37°C, 50 mM Tris-HCl pH 8.5 + 20% glycerol, mean ± SD, triplicate, read-out: Ki.

Structures are written as SMILES. Values joined by “and” are separate entries in the source; they are usually repeats but may differ in a detail not shown here. Equal values may be shown once. “Also recorded” adds a separate entry of the source. Read-outs that look alike come from different tables or passages of the source.

T1 sequence (A0A024B7W1 1420-1472): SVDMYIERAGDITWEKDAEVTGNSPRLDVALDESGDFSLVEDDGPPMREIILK
T1 sequence (A0A024B7W1 1516-1687): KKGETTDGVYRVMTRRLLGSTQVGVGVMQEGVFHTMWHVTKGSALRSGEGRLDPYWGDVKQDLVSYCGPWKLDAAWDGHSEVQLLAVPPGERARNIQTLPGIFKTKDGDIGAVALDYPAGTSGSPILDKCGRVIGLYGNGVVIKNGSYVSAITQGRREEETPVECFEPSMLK

By IC50 is commonly meant the concentration needed to halve the response being measured. In general, Ki refers to the dissociation constant of the complex between target and ligand, obtained from inhibition or displacement. For `O=c1cc(-c2ccc(O)cc2)oc2cc(O)cc(O)c12` [Apigenin], the figures for the IC50 in experiment [1] (setting [4]) and in experiment [1] (setting [7]) were 56.3 ± 0.9 µM and 56.3 µM, respectively. Also, in experiment [1] (setting [5]), the Ki came to 34 µM. Besides, in experiment [1] (setting [6]), the “Inhibition at 500 μM” value is on record as “Yes”.

As to `Oc1cc(O)c2c(c1)O[C@H](c1ccc(O)c(O)c1)[C@@H](O)C2` [Catechin], the “inhibitory activity (in words)” value in experiment [1] is “inactive”; in experiment [1] (listed as Catechine), “no inhibitory activity was detected”. Besides, in experiment [1] (setting [6]), the “Inhibition at 500 μM” value was “No”.

As for `COc1cc(/C=C/C(=O)CC(=O)/C=C/c2ccc(O)c(OC)c2)ccc1O` [Curcumin], the “Inhibition at 500 μM” value in experiment [1] (setting [6]) is recorded as “Yes”. For the same compound, the Ki in experiment [1] (setting [8]) is 2.61 µM and 2.6 µM. For the same compound, in experiment [1] (setting [7]), the IC50 was 3.45 µM and 3.5 µM.

`O=c1c(-c2ccc(O)cc2)coc2cc(O)ccc12` [Daidzein]: the “inhibitory activity (in words)” value in experiment [1] was “no inhibitory activity was detected; also recorded: inactive”. Further, the “Inhibition at 500 μM” value in experiment [1] (setting [6]) is given as “No”.

Take `COc1cc(-c2oc3cc(O)cc(O)c3c(=O)c2O)ccc1O` [Isorhamnetin]: the IC50 in experiment [1] (setting [4]) was found to be 15.5 µM. In addition, in experiment [1] (setting [5]), the Ki was 6.22 µM and 6.2 µM. Also, the “Inhibition at 500 μM” value in experiment [1] (setting [6]) is given as “Yes”.

With `O=c1cc(-c2ccc(O)c(O)c2)oc2cc(O)cc(O)c12` [Luteolin], the “Inhibition at 500 μM” value in experiment [1] (setting [6]) is on record as “Yes”. Also, the Ki in experiment [1] (setting [8]) was determined as 1.4 ± 0.1 µM. In addition, in experiment [1] (setting [7]), the IC50 stood at 2.7 ± 0.3 µM.

As for `O=c1c(O)c(-c2cc(O)c(O)c(O)c2)oc2cc(O)cc(O)c12` [Myricetin], the IC50 is 1.26 µM in experiment [1] (setting [4]) and 1.3 ± 0.1 µM in experiment [1] (setting [7]). The Ki in experiment [1] (Ki, non-competitive mode, unlinked enzyme, pH 8.5) is 0.77 µM; in experiment [1] (setting [8]) it was 0.8 ± 0.1 µM; in experiment [2] it was 4.7 µM; in experiment [3], 8.9 µM. Besides, the “Inhibition at 500 μM” value in experiment [1] (setting [6]) is given as “Yes”.

With `O=c1c(O)c(-c2ccc(O)c(O)c2)oc2cc(O)cc(O)c12` [Quercetin], in experiment [1] (setting [6]), the “Inhibition at 500 μM” value is listed as “Yes”. Besides, the Ki was 1.12 µM and 1.1 µM in experiment [1] (setting [8]); 20.7 µM in experiment [2]. For the same compound, in experiment [1] (setting [7]), the IC50 is 2.42 µM and 2.4 µM.

In the case of `Oc1ccc(/C=C/c2cc(O)cc(O)c2)cc1` [Resveratrol], the “inhibitory activity (in words)” value in experiment [1] is given as “no inhibitory effect was detected; also recorded: no detectable inhibitory activity”. Besides, the “Inhibition at 500 μM” value in experiment [1] (setting [6]) is given as “No”.

Source of the values: publication PMC5503262, “Solution conformations of Zika NS2B-NS3pro and its inhibition by natural products from edible plants” (PLoS ONE, 2017).
